According to ChEMBL document CHEMBL6083183, “Discovery and Hit to Lead Optimization of Macrocyclic Peptides as Novel Tropomyosin Receptor Kinase A Antagonists” (J Med Chem, 2024):
The source made the active and inactive calls. No cut-off for these calls is given here. Bridge positions count the residues as written; N and C are the ends. Square brackets hold non-standard residues; d marks the D form. Peptide text beside a SMILES is read from it. NMeY = CN[C@@H](Cc1ccc(O)cc1)C(=O)O; NMeF = CN[C@@H](Cc1ccccc1)C(=O)O; NMeN = CN[C@@H](CC(N)=O)C(=O)O; NMeL = CN[C@@H](CC(C)C)C(=O)O; NMeS = CN[C@@H](CO)C(=O)O; Sar = CNCC(=O)O

Tests used:
[1] = system: Rattus norvegicus; assay: Analgesic activity in iv dosed rat Brennan's incision pain model assessed as reduction in pain measured after 15 mins; format: functional, organism-based; conditions: dose 0.5-1 mg/kg
[2] = biological target: T1, High affinity nerve growth factor receptor (Homo sapiens, UniProt P04629); assay: Binding affinity to Fc-tagged human TrkA extracellular domain by SPR method
[3] = organism: Homo sapiens; assay: Inhibition of Fc-tagged human TrkA extracellular domain to biotinylated human NGF protein-protein interaction preincubated for 1 hr followed by NGF addition and measured after 3 hrs by ELISA; conditions: time 4.0 hrs
[4] = biological target: T1, High affinity nerve growth factor receptor; assay: Inhibition of human TrkA assessed as beta-galactosidase activity pretreated with NGF followed by […] and measured after 180 mins by pathhunter assay
[5] = Stability in human serum assessed as half-life incubated for 22 to 24 hrs by LC-MS/MS method; format: ADME, cell-free; conditions: time 22-24 hrs
[6] = Stability in rat serum assessed as half-life incubated for 22 to 24 hrs by LC-MS/MS method; format: ADME, cell-free; conditions: time 22-24 hrs
[7] = Total clearance in Sprague-Dawley rat at 1 umol/kg, iv administered as cassette dose measured upto 6 hrs by LC-MS/MS method; format: ADME, organism-based; conditions: in vivo, dose 1 µmol/kg
[8] = AUC in Sprague-Dawley rat at 1 umol/kg, iv administered as cassette dose measured upto 6 hrs by LC-MS/MS method; format: ADME, organism-based; conditions: in vivo, dose 1 µmol/kg

T1 sequence (P04629 whole entry, the tested form may be a part): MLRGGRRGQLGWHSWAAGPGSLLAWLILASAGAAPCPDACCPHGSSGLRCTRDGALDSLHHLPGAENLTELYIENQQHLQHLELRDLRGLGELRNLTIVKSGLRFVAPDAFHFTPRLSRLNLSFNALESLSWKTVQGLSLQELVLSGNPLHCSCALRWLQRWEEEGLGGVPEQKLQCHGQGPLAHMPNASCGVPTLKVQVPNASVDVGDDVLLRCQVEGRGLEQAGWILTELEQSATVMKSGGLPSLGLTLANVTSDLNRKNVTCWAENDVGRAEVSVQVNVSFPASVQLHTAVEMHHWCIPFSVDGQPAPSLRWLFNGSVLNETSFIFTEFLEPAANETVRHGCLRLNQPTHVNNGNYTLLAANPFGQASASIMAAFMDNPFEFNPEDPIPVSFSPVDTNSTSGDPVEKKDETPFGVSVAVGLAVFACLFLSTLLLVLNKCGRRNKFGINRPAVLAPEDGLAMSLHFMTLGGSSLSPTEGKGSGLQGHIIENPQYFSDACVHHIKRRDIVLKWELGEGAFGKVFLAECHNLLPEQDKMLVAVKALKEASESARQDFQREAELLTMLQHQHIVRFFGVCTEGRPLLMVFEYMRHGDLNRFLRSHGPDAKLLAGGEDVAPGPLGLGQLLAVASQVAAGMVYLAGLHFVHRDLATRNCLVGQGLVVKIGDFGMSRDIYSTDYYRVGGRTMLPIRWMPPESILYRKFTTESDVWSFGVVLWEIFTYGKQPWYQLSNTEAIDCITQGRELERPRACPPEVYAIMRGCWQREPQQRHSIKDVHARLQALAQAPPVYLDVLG

Compound | IC50 [4] [µM] | other results
CN1CC[C@]23c4c5ccc(O)c4O[C@H]2[C@@H](O)C=C[C@H]3[C@H]1C5 | – | Activity [1]: Dose-dependent-effect
CC[C@H](C)[C@@H]1NC(=O)CNC(=O)[C@H](Cc2ccc(O)cc2)NC(=O)[C@H](Cc2ccccc2)NC(=O)CNC(=O)[C@H](Cc2c[nH]cn2)NC(=O)[C@@H]2CCCN2C(=O)[C@H](Cc2ccc(O)cc2)NC(=O)[C@H](CC(C)C)NC(=O)[C@H](Cc2ccccc2)NC(=O)[C@H](Cc2ccccc2)NC(=O)CSC[C@@H](C(=O)NCC(N)=O)NC(=O)[C@H](C(C)C)NC1=O ({CH2CO}-FFLYPHGFYGIVCG-NH2; thioether N-13) | – | Kd [2]: 0.0085 µM; inhibition [3]: inactive
CC(C)C[C@@H]1NC(=O)[C@H](CCCNC(=N)N)NC(=O)CNC(=O)[C@H](Cc2ccccc2)N(C)C(=O)CNC(=O)[C@H](Cc2c[nH]c3ccccc23)NC(=O)[C@H](Cc2ccc(O)cc2)NC(=O)[C@H](CCC(=O)O)NC(=O)[C@H](C(C)C)NC(=O)[C@H](CO)NC(=O)[C@H](CCCCN)NC(=O)[C@H](Cc2ccccc2)NC(=O)CSC[C@@H](C(=O)N(C)CC(N)=O)NC(=O)[C@H](Cc2c[nH]cn2)NC(=O)[C@H](CC(=O)O)NC(=O)[C@H](Cc2ccc(O)cc2)NC(=O)[C@H](Cc2ccc(O)cc2)NC(=O)[C@H](CCCCN)NC1=O ({CH2CO}-FKSVEYWG[NMeF]GRLKYYDHC[Sar]-NH2; thioether N-18) | 0.035 | half-life [5]: 2.5 h; half-life [6]: 32 h
CC(C)C[C@@H]1NC(=O)[C@H](CCCNC(=N)N)NC(=O)CNC(=O)[C@H](Cc2ccccc2)N(C)C(=O)CNC(=O)[C@H](Cc2c[nH]c3ccccc23)NC(=O)[C@H](Cc2ccc(O)cc2)NC(=O)[C@H](CO)NC(=O)[C@H](C(C)C)NC(=O)[C@H](CO)NC(=O)[C@H](CCCCN)NC(=O)[C@H](Cc2ccccc2)NC(=O)CSC[C@@H](C(=O)N(C)CC(N)=O)NC(=O)[C@H](Cc2c[nH]cn2)NC(=O)[C@H](CC(N)=O)NC(=O)[C@H](Cc2ccc(O)cc2)NC(=O)[C@H](Cc2ccc(O)cc2)NC(=O)[C@H](CCCCN)NC1=O ({CH2CO}-FKSVSYWG[NMeF]GRLKYYNHC[Sar]-NH2; thioether N-18) | 0.022 | half-life [5]: 2.9 h; half-life [6]: 4.5 h
CC(C)C[C@@H]1NC(=O)[C@H](CC(N)=O)NC(=O)CNC(=O)[C@H](Cc2ccccc2)N(C)C(=O)CNC(=O)[C@H](Cc2c[nH]c3ccccc23)NC(=O)[C@H](Cc2ccc(O)cc2)NC(=O)[C@H](C)NC(=O)[C@H](C(C)C)NC(=O)[C@H](CO)NC(=O)[C@H](CO)NC(=O)[C@H](Cc2ccccc2)NC(=O)CSC[C@@H](C(=O)NCC(N)=O)NC(=O)[C@H](Cc2c[nH]cn2)NC(=O)[C@H](CC(N)=O)NC(=O)[C@H](Cc2ccc(O)cc2)NC(=O)[C@H](Cc2ccc(O)cc2)NC(=O)[C@H](C(C)C)NC1=O ({CH2CO}-FSSVAYWG[NMeF]GNLVYYNHCG-NH2; thioether N-18) | 0.026 | –
CC[C@H](C)[C@@H]1NC(=O)CNC(=O)[C@H](Cc2ccccc2)N(C)C(=O)CNC(=O)[C@H](Cc2c[nH]c3ccccc23)NC(=O)[C@H](Cc2ccc(O)cc2)NC(=O)[C@H](CCC(=O)O)NC(=O)[C@H](C(C)C)NC(=O)[C@H](CO)NC(=O)[C@H](CO)NC(=O)[C@H](Cc2ccccc2)NC(=O)CSC[C@@H](C(=O)NCC(N)=O)NC(=O)[C@H](Cc2cnc[nH]2)NC(=O)[C@H](CC(=O)O)NC(=O)[C@H](Cc2ccc(O)cc2)NC(=O)[C@H](Cc2c[nH]c3ccccc23)NC(=O)[C@H](CCC(=O)O)NC(=O)[C@H](CC(C)C)NC1=O ({CH2CO}-FSSVEYWG[NMeF]GILEWYDHCG-NH2; thioether N-18) | 0.034 | half-life [5]: > 72 h; clearance [7]: 21.3 mL/min/kg; AUC at 6 h [8]: 0.786 µM·h; half-life [6]: > 72 h
CC(C)C[C@@H]1NC(=O)[C@H](CC(N)=O)NC(=O)CNC(=O)[C@H](Cc2ccccc2)N(C)C(=O)CNC(=O)[C@H](Cc2c[nH]c3ccccc23)NC(=O)[C@H](Cc2ccc(O)cc2)NC(=O)[C@H](CO)NC(=O)[C@H](C(C)C)NC(=O)[C@H](CO)NC(=O)[C@H](CO)NC(=O)[C@H](Cc2ccccc2)NC(=O)CSC[C@@H](C(=O)NCC(N)=O)NC(=O)[C@H](Cc2c[nH]cn2)NC(=O)[C@H](CC(N)=O)NC(=O)[C@H](Cc2ccc(O)cc2)NC(=O)[C@H](Cc2c[nH]c3ccccc23)NC(=O)[C@H](C(C)C)NC1=O ({CH2CO}-FSSVSYWG[NMeF]GNLVWYNHCG-NH2; thioether N-18) | 0.041 | –
CC(C)C[C@@H]1NC(=O)[C@H](CC(N)=O)NC(=O)CNC(=O)[C@H](Cc2ccccc2)N(C)C(=O)CNC(=O)[C@H](Cc2c[nH]c3ccccc23)NC(=O)[C@H](Cc2ccc(O)cc2)NC(=O)[C@H](CO)NC(=O)[C@H](C(C)C)NC(=O)[C@H](CO)NC(=O)[C@H](CO)NC(=O)[C@H](Cc2ccccc2)NC(=O)CSC[C@@H](C(=O)N(C)CC(N)=O)NC(=O)[C@H](Cc2c[nH]cn2)NC(=O)[C@H](CC(N)=O)NC(=O)[C@H](Cc2ccc(O)cc2)NC(=O)[C@H](Cc2c[nH]c3ccccc23)NC(=O)[C@H](C(C)C)NC1=O ({CH2CO}-FSSVSYWG[NMeF]GNLVWYNHC[Sar]-NH2; thioether N-18) | 0.015 | –
CC(C)C[C@@H]1NC(=O)[C@H](CC(N)=O)NC(=O)CNC(=O)[C@H](Cc2ccccc2)N(C)C(=O)CNC(=O)[C@H](Cc2c[nH]c3ccccc23)NC(=O)[C@H](Cc2ccc(O)cc2)NC(=O)[C@H](CO)NC(=O)[C@H](C(C)C)NC(=O)[C@H](CO)NC(=O)[C@H](CO)NC(=O)[C@H](Cc2ccccc2)NC(=O)CSC[C@@H](C(=O)NCC(N)=O)NC(=O)[C@H](Cc2c[nH]cn2)NC(=O)[C@H](CC(N)=O)N(C)C(=O)[C@H](Cc2ccc(O)cc2)NC(=O)[C@H](Cc2c[nH]c3ccccc23)NC(=O)[C@H](C(C)C)NC1=O ({CH2CO}-FSSVSYWG[NMeF]GNLVWY[NMeN]HCG-NH2; thioether N-18) | 0.048 | –
CC(C)C[C@@H]1NC(=O)[C@H](CC(N)=O)NC(=O)CNC(=O)[C@H](Cc2ccccc2)N(C)C(=O)CNC(=O)[C@H](Cc2c[nH]c3ccccc23)NC(=O)[C@H](Cc2ccc(O)cc2)NC(=O)[C@H](CO)NC(=O)[C@H](C(C)C)NC(=O)[C@H](CO)NC(=O)[C@H](CO)NC(=O)[C@H](Cc2ccccc2)NC(=O)CSC[C@@H](C(=O)NCC(N)=O)NC(=O)[C@H](Cc2cnc[nH]2)NC(=O)[C@H](CC(=O)O)NC(=O)[C@H](Cc2ccc(O)cc2)NC(=O)[C@H](Cc2ccc(O)cc2)NC(=O)[C@H](C(C)C)NC1=O ({CH2CO}-FSSVSYWG[NMeF]GNLVYYDHCG-NH2; thioether N-18) | 0.024 | –
CC(C)C[C@@H]1NC(=O)[C@H](CC(N)=O)NC(=O)CNC(=O)[C@H](Cc2ccccc2)N(C)C(=O)CNC(=O)[C@H](Cc2c[nH]c3ccccc23)NC(=O)[C@H](Cc2ccc(O)cc2)NC(=O)[C@H](CO)NC(=O)[C@H](C(C)C)NC(=O)[C@H](CO)NC(=O)[C@H](CO)NC(=O)[C@H](Cc2ccccc2)NC(=O)CSC[C@@H](C(=O)NCC(N)=O)NC(=O)[C@H](Cc2c[nH]cn2)NC(=O)[C@H](CC(N)=O)NC(=O)[C@H](Cc2ccc(O)cc2)NC(=O)[C@H](Cc2ccc(O)cc2)NC(=O)[C@H](C(C)C)NC1=O ({CH2CO}-FSSVSYWG[NMeF]GNLVYYNHCG-NH2; thioether N-18) | 0.006 | –
CC(C)C[C@@H]1NC(=O)[C@H](CC(N)=O)NC(=O)CNC(=O)[C@H](Cc2ccccc2)N(C)C(=O)CNC(=O)[C@H](Cc2c[nH]c3ccccc23)NC(=O)[C@H](Cc2ccc(O)cc2)NC(=O)[C@H](CO)NC(=O)[C@H](C(C)C)NC(=O)[C@H](CO)NC(=O)[C@H](CO)NC(=O)[C@H](Cc2ccccc2)NC(=O)CSC[C@@H](C(=O)NCC(N)=O)NC(=O)[C@H](Cc2c[nH]cn2)NC(=O)[C@H](CO)NC(=O)[C@H](Cc2ccc(O)cc2)NC(=O)[C@H](Cc2ccc(O)cc2)NC(=O)[C@H](C(C)C)NC1=O ({CH2CO}-FSSVSYWG[NMeF]GNLVYYSHCG-NH2; thioether N-18) | 0.186 | –
CC(C)C[C@H]1C(=O)N[C@@H](C(C)C)C(=O)N[C@@H](Cc2c[nH]c3ccccc23)C(=O)N[C@@H](Cc2ccc(O)cc2)C(=O)N[C@@H](CC(N)=O)C(=O)N[C@@H](Cc2c[nH]cn2)C(=O)N[C@H](C(=O)NCC(N)=O)CSCC(=O)N[C@@H](Cc2ccccc2)C(=O)N[C@@H](CO)C(=O)N[C@@H](CO)C(=O)N[C@@H](C(C)C)C(=O)N[C@@H](CO)C(=O)N[C@@H](Cc2ccc(O)cc2)C(=O)N[C@@H](Cc2c[nH]c3ccccc23)C(=O)NCC(=O)N(C)[C@@H](Cc2ccccc2)C(=O)NCC(=O)N[C@@H](CC(N)=O)C(=O)N1C ({CH2CO}-FSSVSYWG[NMeF]GN[NMeL]VWYNHCG-NH2; thioether N-18) | 0.081 | –
CC(C)C[C@@H]1NC(=O)[C@H](CC(N)=O)NC(=O)CNC(=O)[C@H](Cc2ccccc2)N(C)C(=O)CNC(=O)[C@H](Cc2c[nH]c3ccccc23)NC(=O)[C@H](Cc2ccc(O)cc2)N(C)C(=O)[C@H](CO)NC(=O)[C@H](C(C)C)NC(=O)[C@H](CO)NC(=O)[C@H](CO)NC(=O)[C@H](Cc2ccccc2)NC(=O)CSC[C@@H](C(=O)NCC(N)=O)NC(=O)[C@H](Cc2c[nH]cn2)NC(=O)[C@H](CC(N)=O)NC(=O)[C@H](Cc2ccc(O)cc2)NC(=O)[C@H](Cc2c[nH]c3ccccc23)NC(=O)[C@H](C(C)C)NC1=O ({CH2CO}-FSSVS[NMeY]WG[NMeF]GNLVWYNHCG-NH2; thioether N-18) | 0.022 | –
CC(C)C[C@@H]1NC(=O)[C@H](CC(N)=O)NC(=O)CNC(=O)[C@H](Cc2ccccc2)N(C)C(=O)CNC(=O)[C@H](Cc2c[nH]c3ccccc23)NC(=O)[C@H](Cc2ccc(O)cc2)NC(=O)[C@H](CO)NC(=O)[C@H](C(C)C)NC(=O)[C@H](CO)NC(=O)[C@H](CO)N(C)C(=O)[C@H](Cc2ccccc2)NC(=O)CSC[C@@H](C(=O)NCC(N)=O)NC(=O)[C@H](Cc2c[nH]cn2)NC(=O)[C@H](CC(N)=O)NC(=O)[C@H](Cc2ccc(O)cc2)NC(=O)[C@H](Cc2c[nH]c3ccccc23)NC(=O)[C@H](C(C)C)NC1=O ({CH2CO}-F[NMeS]SVSYWG[NMeF]GNLVWYNHCG-NH2; thioether N-18) | 0.013 | –
